# Residues, ends and D or L forms follow the SMILES beside them. *: point of attachment. PhAc = O=C(Cc1ccccc1)*; NHNH2 = NN*
row,melting point,Structure (SMILES)
1,> 300 °C,O=c1[nH]c2cc(-c3ncc[nH]3)c([N+](=O)[O-])cc2[nH]c1=O
2,167 to 169 °C,CNC(=O)c1cccc2c(-c3ccccc3)c([N+](=O)[O-])oc12
3,114 to 116 °C,CCCc1c(OCCCSc2ccc(-c3nnn[nH]3)cc2)ccc(C(C)=O)c1O
4,245 to 247 °C,COC(=O)c1ccc(-c2cn(Cc3cccnc3)c3c2CCc2nc4c(nc2-3)C(C)(C)CCC4(C)C)cc1
5,148 to 150 °C,CCN(CC)CCNC(=O)c1ccc(Nc2nccc(-c3cccnc3)n2)cc1
6,104 to 106 °C,COCCSc1cc2c(N3CCc4ccc(Cl)cc43)ncnc2cc1Cl
7,139 to 141 °C,Cc1nc(-c2ccc(-c3cc(C(F)(F)F)nn3-c3ccc(S(C)(=O)=O)c(F)c3)cc2)cs1
8,95 to 97 °C,COc1ccc(Cc2nc3cccc(CCCO)c3o2)cc1OC
9,174 °C,O=C(NCCN(CCNC(=O)OCCO)c1nc(Cl)nc(N(CCNC(=O)OCCO)CCNC(=O)OCCO)n1)OCCO
10,129 to 130 °C,O=C(NNc1ccccc1C(F)(F)F)c1c(F)cccc1F
11,169 to 171 °C,OCc1ccc(OCc2cn3c(Cl)cccc3n2)cc1
12,135 °C,O=[N+]([O-])c1cc(Cl)cc(C(c2cc(Cl)cc([N+](=O)[O-])c2O)C(F)(F)F)c1O
13,85 °C,O=C1c2ccccc2C(=O)N1CCCC(O)CF (centres undefined)
14,197 to 198 °C,O=[N+]([O-])c1cc([N+](=O)[O-])c(Nc2ccc(Cl)c3ccccc23)c(C(F)(F)F)c1
15,127 to 128 °C,O=C(c1ccc(F)cc1)c1cccc(C#Cc2ccc(F)cc2)c1
16,139 to 140 °C,O=C(c1ccc2nonc2c1)N1C2CCC1COC2
17,172 to 173 °C,Cc1ccnc2c1N=C(S(C)(=O)=O)c1cccnc1N2C1CC1
18,207 to 208 °C,CN(C)CC(=O)N1c2ccccc2N(C)C(=O)c2cnc(-c3ccccc3)nc21
19,103 to 105 °C,"CC(C#CC1CC(Oc2ccc(OC(F)(F)F)cc2)C1)N(O)C(N)=O (single isomer, unassigned; (+))"
20,207 to 209 °C,Cn1c(CCNC(=O)c2cc(F)cc3c2OCOC3)nc(-c2ccncn2)cc1=O
21,130 to 133 °C,CCOC(=O)C1=CC(OC)(C(C)(C)C)N(c2ccc(Cl)cc2Cl)N1 (centres undefined)
22,54 to 55 °C,O=C(NCCSCc1cccc(C(F)(F)F)c1)c1c(Cl)cccc1Cl
23,96 to 98 °C,ON=C1CCCOc2ccccc21

row,melting point,Structure (SMILES)
1,172 to 174 °C,CC(C)[C@H](NC(=O)OCc1ccccn1)C(=O)N[C@@H](Cc1ccccc1)C[C@H](O)[C@H](Cc1ccccc1)NC(=O)OCc1cccnc1
2,78 to 80 °C,CC1C(=O)Oc2cc(N3CCCCC3)ccc21 (centres undefined)
3,95 to 95.5 °C,CC(C)[C@@H]1C[C@@H]([C@H](Br)CC2CCCCC2)OC1=O
4,170 to 171 °C,CC#CCOc1cc(/C=C/C(=O)Nc2ccccc2C(=O)O)ccc1OC
5,186 °C,COc1ccccc1-c1cc(N2CCN(Cc3ccc(C)cc3)CC2)n2ccc(=O)ccc12
6,248 to 250 °C,C#CCN(c1ccc(C(=O)OC(C)(C)C)c(F)c1)C1CCc2cc3nc(C)[nH]c(=O)c3cc21 (racemic)
7,166 to 168 °C,Cc1nc(-c2ccccc2)cc(-c2cccc(C#N)c2)c1C(=O)NCCN1CCOCC1
8,142 to 143 °C,CC(NC(=O)C1CCCN1C(=O)Cc1ccccc1)C(=O)NN (stereo not drawn) (PhAc-Pro-Ala-NHNH2; configuration not given here)
9,162 to 163 °C,O=c1nc(-c2cccc(CN3CCCCC3)n2)sc2ccccc12
10,162 to 164 °C,COc1cc(C=Cc2ccc(Cl)nn2)cc(OC)c1OC
11,232 to 234 °C,CC1(C)CC(CCn2c(=O)[nH]c3ncc(-c4ccc(O)cc4)nc32)CCO1 (centres undefined)
12,235 to 240 °C,Cn1ccnc1Sc1ccc(Nc2c(C#N)cnc3cc(/C=C/CN4CCOCC4)ccc23)cc1Cl
13,224 to 226 °C,CC(C)(C)OC(=O)NC(CC1CCCCC1)C(O)C(O)C(CC1CCCCC1)NC(=O)OC(C)(C)C (centres undefined)
14,104 to 105 °C,COc1ccc(C2(C#Cc3ccc(Cl)cc3)CCC(=O)CC2)cc1OC1CCCC1
15,126 to 128 °C,CC(O)(c1nc2cc(S(=O)(=O)c3ccccc3)ccc2s1)C(F)(F)F (centres undefined)
16,209 to 212 °C,COc1cc(Nc2c(C#N)cnc3cc(-c4csc(CN5CCOCC5)c4)sc23)c(Cl)cc1Cl
17,95 °C,CC(C)(C)OC(=O)CN(C(=O)CNC(=O)c1ccc(Cl)c(Cl)c1)c1ccccc1
18,> 250 °C,CN[C@@H](C)[C@@H]1CCN(c2c(F)cc3c(=O)[nH]c(=O)n(C4CC4)c3c2C)C1
19,145 to 146 °C,c1ccc(COc2ccc(Nc3ccn(-c4ccccc4)n3)cc2)cc1
20,114 °C,CCOC(=O)CC(NC(=O)CNC(=O)c1csc(NC(=N)N)n1)c1cccnc1 (racemic)
21,249 to 250 °C,O=C1N(Cc2ccc(=O)[nH]c2)c2ccccc2C12COc1cc3c(cc12)OCCO3 (centres undefined)
22,178 to 179 °C,Nc1ccc(-n2ccn(-c3ccc(OCC(F)(F)C(F)F)cc3)c2=O)cc1
23,78 to 80 °C,O=C(Cl)c1ccc(OCc2ccccc2)c(Cl)c1

row,melting point,Structure (SMILES)
1,106 to 107 °C,ClCc1cnc2cc(Cl)ccc2c1Cl
2,128 to 132 °C,CC(C)(C)NC(=O)NCC#N
3,57 to 60 °C,CC(NC(=O)C(C)(C(C)C)C(C)C)c1ccco1 (centres undefined)
4,185 °C,O=C1c2cccc(NC(=S)Nc3cc[nH]n3)c2C2CC3(CCN12)SCCS3 (centres undefined)
5,140 to 145 °C,CC1(C)Cc2c(sc(N)c2C(N)=O)C(C)(C)C1
6,116 to 117 °C,CCOC(=O)Cc1nc(-c2ccc(F)cc2)oc1-c1cccs1
7,136 to 138 °C,N#CN1C(=O)[C@H]2CC=CC[C@H]2C1=O
8,226 to 227 °C,O=C(O)Cc1c(-c2ccccc2)c2cc3c(cc2oc1=O)C(=O)OC3
9,108 to 109 °C,CCCCCCCC(c1cc(C)ccc1O)c1cc(C)ccc1O
10,158 to 160 °C,COC(=O)C1=C(C)NC(C)=C(C(=O)OCC2CCCO2)C1c1cccc(NC(C)=O)c1 (centres undefined)
11,96 °C,FC(F)(F)c1cccc(-c2cc(C(F)(F)F)n3nccc3n2)c1
12,214 to 215 °C,CC(=O)Nc1ccc(S(=O)(=O)Nc2nncs2)cc1
13,44 to 46 °C,COc1ccc2c(c1)N(C)C(=O)C2C (centres undefined)
14,268 to 270 °C,CN(C)c1ccc2c(c1)C(=O)N(c1ccc3c(c1)CCN3C)C2
15,62 to 64 °C,CN(C(=O)CCSC(c1ccccc1)(c1ccccc1)c1ccccc1)c1cn(-c2cccnc2)nc1Cl
16,55 to 56 °C,CC1(C)O[C@]23C[C@H]1CC[C@]2(C)CCCC3=O
17,110 to 112 °C,N#Cc1cccnc1N1CCc2ccccc2CC1
18,132 to 134 °C,COc1cc(C=Cc2ccccc2)ccc1O
19,106 to 107 °C,FC(F)(F)c1cc(-n2cncn2)c2cccc(C(F)(F)F)c2n1
20,74 to 79 °C,OC(CSCc1ccc(Cl)cc1)C12CC3CC(CC(C3)C1)C2 (centres undefined)
21,114 to 119 °C,CCCOC(=O)c1ccc2c(c1)S[C@@H](c1ccc(OC)cc1)[C@@H](OC(C)=O)C(=O)N2CCN(C)C (racemic)
22,41 to 42 °C,CC1(C)C=C(I)C(=O)C(C)(C)C1
23,165 °C,CCSc1nccn1-c1ccc(O)cc1

row,melting point,Structure (SMILES)
1,105 to 107 °C,CC(C)C(=O)N[C@@H](CSC(=O)C(C)C)C(=O)NCCSC(=O)C(C)(C)C
2,86 to 90 °C,N#Cc1nc(-c2cnn(-c3ccc(C(F)(F)F)cc3[N+](=O)[O-])c2Br)[nH]c1C#N
3,165 to 166 °C,COc1ccc2nc(C)cc(Oc3cc(-c4ccc(C(F)(F)F)cc4)ncn3)c2c1
4,164 to 167 °C,Cc1c(/C=C2\COc3ccc4ccccc4c3C2=O)ncn1C(c1ccccc1)(c1ccccc1)c1ccccc1
5,193 to 195 °C,O=[N+]([O-])c1cccc(-c2nc3ccc(OC(F)(F)F)cc3[nH]2)c1
6,137 to 139 °C,O=C(O)C(O)c1ccccc1[N+](=O)[O-] (centres undefined)
7,109 to 110 °C,CCCCCCCCCCCN=C=O
8,191 to 192 °C,O=C1CCC(c2ccc(C3CCCC3)cc2)=NN1
9,> 250 °C,COc1ccc(CCNc2nc(O)c(NC(=O)c3ccco3)c(O)n2)cc1
10,160 to 161 °C,CCC(CC)c1ccc(Cl)c2nc3n(c12)CCCCN3c1cnc(N2CCCC2)cc1C
11,276 to 277 °C,COc1cccc2c(NCc3ccccc3C)cc(C(=O)O)nc12
12,193 to 196 °C,COc1cc(-n2cccn2)ccc1-n1cc(OC)c(=O)c(C(C)=O)n1
13,137 °C,N#CSc1cnn(-c2c(Cl)cc(C(F)(F)F)cc2Cl)c1N
14,68 to 69 °C,Cc1cc2c(c(OCC(=O)c3ccc(C(C)C)cc3)c1)CCC2
15,176 to 178 °C,CCOC(=O)C1=C(C(F)(F)F)Nc2n[nH]cc2C1c1ccc(Cl)cc1 (centres undefined)
16,44 to 45 °C,CCCCc1c(C(=O)OCC)cc(OC)c2ccc(OC)cc12
17,117 to 118 °C,O=C1c2cc(OCc3ccc4ccccc4n3)ccc2CCC1Cc1ccccc1 (centres undefined)
18,95.7 to 96.7 °C,OCCC#Cc1cnc2ccccc2c1
19,227 to 228 °C,CCOC(=O)C(C#N)=CNc1ccc([N+](=O)[O-])cc1
20,165 to 166 °C,CC(C)(C)C(=O)Nc1c[nH]nc1C(=O)NCCC#N
21,158 to 160 °C,O=C(Nc1ccccc1Oc1ccc(Cl)cc1)C1CCN(C(=O)c2ccccc2)CC1
22,146 to 150 °C,Cn1ncc2c1-c1cc(Cl)ccc1N(C(=O)C1CC1)C2
23,218 to 225 °C,COCCN1CCc2cc(Nc3ncc(Cl)c(Nc4cc(C(N)=O)ccc4OC)n3)c(OC)cc2CC1

row,Structure (SMILES),melting point
1,CN1Cc2cncn2-c2cccc(Br)c2C1=O,196 to 197 °C
2,CO[C@@H]1C[C@H](C)N(c2ccc(C#N)c3ccccc23)C1,88 to 89 °C
3,COC(=O)c1cccnc1N(C)C1CCN(Cc2ccccc2)CC1,109 to 110 °C
4,CN1C(=O)CN(C(=O)NC2C3CC4CC(C3)CC2C4)C(c2ccccc2)c2ccccc21 (racemic),243 to 244 °C
5,CN1CCN(c2ccc(Br)cc2)CC1,78 to 80 °C
6,CNC(=O)c1cc2nc(C)c(C)nc2c(Cl)c1NC(=O)c1cc(C(F)(F)F)nn1-c1ncccc1Cl,221 to 224 °C
7,COc1ccc(P2Oc3ccccc3-c3ccccc32)cc1 (centres undefined),104 to 106 °C
